{"source": "paper PMC3382171", "about": "(PLoS ONE, 2012)", "test_in_all_cases": "biochemical", "details_in_all_cases": "read-out: Upstate KSS % inhibition at 1uM", "key": {"[1]": {"target": "T1, rat CK1delta (Rattus norvegicus, UniProt Q06486)", "T1 construct": "gene Csnk1d", "protocol": "(§1) In these selectivity assays the concentration of ATP was set to the Km value of ATP for each kinase tested to allow for a relative potency comparison between the various kinases. The compounds were tested at 1 µM final concentration. […] (A) Kinase selectivity screen (KSS) performed at Upstate Biotechnology. […] (B) KSS performed at University of Dundee (Division of Signal Transduction Therapy). […] (PDF) Click here for additional data file."}, "[2]": {"target": "T2, PKCmu (Homo sapiens, UniProt Q15139)", "T2 construct": "gene PRKD1", "T2 sequence (Q15139 whole entry)": "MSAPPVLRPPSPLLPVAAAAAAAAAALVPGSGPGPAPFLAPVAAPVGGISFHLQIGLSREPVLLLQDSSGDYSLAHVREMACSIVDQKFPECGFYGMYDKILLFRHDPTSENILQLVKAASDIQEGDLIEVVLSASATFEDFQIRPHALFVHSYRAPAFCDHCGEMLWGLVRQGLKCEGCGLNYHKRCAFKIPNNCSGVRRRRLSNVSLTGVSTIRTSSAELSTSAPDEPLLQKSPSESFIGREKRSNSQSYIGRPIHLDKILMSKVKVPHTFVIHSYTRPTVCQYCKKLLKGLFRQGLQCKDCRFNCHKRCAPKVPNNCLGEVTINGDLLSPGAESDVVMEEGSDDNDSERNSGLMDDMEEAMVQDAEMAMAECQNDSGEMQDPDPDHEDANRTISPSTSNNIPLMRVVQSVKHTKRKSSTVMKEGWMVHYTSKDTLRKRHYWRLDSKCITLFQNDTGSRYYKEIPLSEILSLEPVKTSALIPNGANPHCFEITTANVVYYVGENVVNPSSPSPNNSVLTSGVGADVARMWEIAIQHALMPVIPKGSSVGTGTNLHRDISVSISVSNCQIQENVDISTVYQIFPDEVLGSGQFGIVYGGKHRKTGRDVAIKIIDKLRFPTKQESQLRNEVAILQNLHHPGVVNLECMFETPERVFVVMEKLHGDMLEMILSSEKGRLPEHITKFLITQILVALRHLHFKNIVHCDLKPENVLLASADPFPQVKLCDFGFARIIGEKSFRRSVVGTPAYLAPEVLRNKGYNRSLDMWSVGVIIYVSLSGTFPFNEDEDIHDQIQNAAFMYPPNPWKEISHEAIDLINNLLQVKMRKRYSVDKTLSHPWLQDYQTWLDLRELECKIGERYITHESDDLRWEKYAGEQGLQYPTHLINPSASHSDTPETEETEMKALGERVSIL", "protocol": "as §1"}, "[3]": {"target": "T3, PI3Kg (Homo sapiens, UniProt P48736)", "T3 construct": "gene PIK3CG", "protocol": "as §1"}, "[4]": {"target": "PLK3 (Homo sapiens, UniProt Q9H4B4)", "protocol": "as §1"}, "[5]": {"target": "PAK4 (Homo sapiens, UniProt O96013)", "protocol": "as §1"}, "[6]": {"target": "T4, Rse (Homo sapiens, UniProt Q06418)", "T4 construct": "gene TYRO3", "protocol": "as §1"}, "[7]": {"target": "GRK3 (Homo sapiens, UniProt P35626)", "protocol": "as §1"}, "[8]": {"target": "CDK2/CyclinA (Homo sapiens, UniProt P24941)", "protocol": "as §1"}, "[9]": {"target": "FGFR3 (Homo sapiens, UniProt P22607)", "protocol": "as §1"}, "[10]": {"target": "NEK6 (Homo sapiens, UniProt Q9HC98)", "protocol": "as §1"}, "[11]": {"target": "T5, PKBbeta (Homo sapiens, UniProt P31751)", "T5 construct": "gene AKT2", "T5 sequence (P31751 whole entry)": "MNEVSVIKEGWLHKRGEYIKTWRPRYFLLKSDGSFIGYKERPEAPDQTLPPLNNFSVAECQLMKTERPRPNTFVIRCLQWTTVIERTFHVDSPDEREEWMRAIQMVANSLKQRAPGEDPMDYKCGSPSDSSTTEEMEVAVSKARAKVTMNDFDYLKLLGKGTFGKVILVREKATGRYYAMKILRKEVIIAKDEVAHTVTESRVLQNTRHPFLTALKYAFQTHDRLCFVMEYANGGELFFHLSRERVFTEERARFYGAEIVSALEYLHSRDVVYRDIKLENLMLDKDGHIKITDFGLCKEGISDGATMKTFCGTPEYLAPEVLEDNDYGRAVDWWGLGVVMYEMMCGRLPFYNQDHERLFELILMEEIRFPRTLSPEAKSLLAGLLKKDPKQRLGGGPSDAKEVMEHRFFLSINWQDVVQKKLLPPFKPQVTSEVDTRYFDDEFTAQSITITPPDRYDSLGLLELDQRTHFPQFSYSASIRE", "protocol": "as §1"}, "[12]": {"target": "T6, Pyk2 (Homo sapiens, UniProt Q14289)", "T6 construct": "gene PTK2B", "protocol": "as §1"}, "[13]": {"target": "Fes (Homo sapiens, UniProt P07332)", "protocol": "as §1"}, "[14]": {"target": "T7, MNK2 (Homo sapiens, UniProt Q9HBH9)", "T7 construct": "gene MKNK2", "protocol": "as §1"}, "[15]": {"target": "RIPK2 (Homo sapiens, UniProt O43353)", "sequence (O43353 whole entry)": "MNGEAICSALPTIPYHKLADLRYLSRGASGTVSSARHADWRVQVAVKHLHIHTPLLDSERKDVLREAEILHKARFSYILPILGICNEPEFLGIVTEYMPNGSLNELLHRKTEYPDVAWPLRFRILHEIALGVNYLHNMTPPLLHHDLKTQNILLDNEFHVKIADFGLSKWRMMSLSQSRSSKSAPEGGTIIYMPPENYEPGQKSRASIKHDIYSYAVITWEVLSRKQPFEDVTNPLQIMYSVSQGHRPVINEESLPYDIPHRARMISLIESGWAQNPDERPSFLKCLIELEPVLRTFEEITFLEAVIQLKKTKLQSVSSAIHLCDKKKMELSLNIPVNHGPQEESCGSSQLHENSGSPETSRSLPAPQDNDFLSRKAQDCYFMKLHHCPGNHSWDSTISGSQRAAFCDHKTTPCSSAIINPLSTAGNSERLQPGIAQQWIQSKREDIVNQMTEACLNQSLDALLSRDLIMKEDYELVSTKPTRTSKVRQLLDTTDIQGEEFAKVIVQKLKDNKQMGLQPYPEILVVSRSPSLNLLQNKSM", "protocol": "as §1"}, "[16]": {"target": "T8, Rsk3 (Homo sapiens, UniProt Q15349)", "T8 construct": "gene RPS6KA2", "protocol": "as §1"}, "[17]": {"target": "T9, MAPK2 (Homo sapiens, UniProt P28482)", "T9 construct": "gene MAPK1", "T9 sequence (P28482 whole entry)": "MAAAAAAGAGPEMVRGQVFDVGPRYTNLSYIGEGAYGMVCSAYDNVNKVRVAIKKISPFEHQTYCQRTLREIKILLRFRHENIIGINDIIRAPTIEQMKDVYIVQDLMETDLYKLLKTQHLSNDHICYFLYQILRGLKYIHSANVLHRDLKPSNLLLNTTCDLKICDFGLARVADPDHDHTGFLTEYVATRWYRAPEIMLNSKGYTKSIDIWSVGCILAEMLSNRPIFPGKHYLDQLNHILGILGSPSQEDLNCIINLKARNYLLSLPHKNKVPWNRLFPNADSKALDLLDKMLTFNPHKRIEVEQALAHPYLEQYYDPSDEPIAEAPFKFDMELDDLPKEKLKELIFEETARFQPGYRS", "protocol": "as §1"}, "[18]": {"target": "T10, PKCtheta (Homo sapiens, UniProt Q04759)", "T10 construct": "gene PRKCQ", "protocol": "as §1"}, "[19]": {"target": "T11, Fms (Homo sapiens, UniProt P07333)", "T11 construct": "gene CSF1R", "protocol": "as §1"}, "[20]": {"target": "CSK (Homo sapiens, UniProt P41240)", "protocol": "as §1"}, "[21]": {"target": "MELK (Homo sapiens, UniProt Q14680)", "protocol": "as §1"}, "[22]": {"target": "T12, MLCK (Homo sapiens, UniProt Q15746)", "T12 construct": "gene MYLK", "T12 sequence (Q15746 whole entry)": "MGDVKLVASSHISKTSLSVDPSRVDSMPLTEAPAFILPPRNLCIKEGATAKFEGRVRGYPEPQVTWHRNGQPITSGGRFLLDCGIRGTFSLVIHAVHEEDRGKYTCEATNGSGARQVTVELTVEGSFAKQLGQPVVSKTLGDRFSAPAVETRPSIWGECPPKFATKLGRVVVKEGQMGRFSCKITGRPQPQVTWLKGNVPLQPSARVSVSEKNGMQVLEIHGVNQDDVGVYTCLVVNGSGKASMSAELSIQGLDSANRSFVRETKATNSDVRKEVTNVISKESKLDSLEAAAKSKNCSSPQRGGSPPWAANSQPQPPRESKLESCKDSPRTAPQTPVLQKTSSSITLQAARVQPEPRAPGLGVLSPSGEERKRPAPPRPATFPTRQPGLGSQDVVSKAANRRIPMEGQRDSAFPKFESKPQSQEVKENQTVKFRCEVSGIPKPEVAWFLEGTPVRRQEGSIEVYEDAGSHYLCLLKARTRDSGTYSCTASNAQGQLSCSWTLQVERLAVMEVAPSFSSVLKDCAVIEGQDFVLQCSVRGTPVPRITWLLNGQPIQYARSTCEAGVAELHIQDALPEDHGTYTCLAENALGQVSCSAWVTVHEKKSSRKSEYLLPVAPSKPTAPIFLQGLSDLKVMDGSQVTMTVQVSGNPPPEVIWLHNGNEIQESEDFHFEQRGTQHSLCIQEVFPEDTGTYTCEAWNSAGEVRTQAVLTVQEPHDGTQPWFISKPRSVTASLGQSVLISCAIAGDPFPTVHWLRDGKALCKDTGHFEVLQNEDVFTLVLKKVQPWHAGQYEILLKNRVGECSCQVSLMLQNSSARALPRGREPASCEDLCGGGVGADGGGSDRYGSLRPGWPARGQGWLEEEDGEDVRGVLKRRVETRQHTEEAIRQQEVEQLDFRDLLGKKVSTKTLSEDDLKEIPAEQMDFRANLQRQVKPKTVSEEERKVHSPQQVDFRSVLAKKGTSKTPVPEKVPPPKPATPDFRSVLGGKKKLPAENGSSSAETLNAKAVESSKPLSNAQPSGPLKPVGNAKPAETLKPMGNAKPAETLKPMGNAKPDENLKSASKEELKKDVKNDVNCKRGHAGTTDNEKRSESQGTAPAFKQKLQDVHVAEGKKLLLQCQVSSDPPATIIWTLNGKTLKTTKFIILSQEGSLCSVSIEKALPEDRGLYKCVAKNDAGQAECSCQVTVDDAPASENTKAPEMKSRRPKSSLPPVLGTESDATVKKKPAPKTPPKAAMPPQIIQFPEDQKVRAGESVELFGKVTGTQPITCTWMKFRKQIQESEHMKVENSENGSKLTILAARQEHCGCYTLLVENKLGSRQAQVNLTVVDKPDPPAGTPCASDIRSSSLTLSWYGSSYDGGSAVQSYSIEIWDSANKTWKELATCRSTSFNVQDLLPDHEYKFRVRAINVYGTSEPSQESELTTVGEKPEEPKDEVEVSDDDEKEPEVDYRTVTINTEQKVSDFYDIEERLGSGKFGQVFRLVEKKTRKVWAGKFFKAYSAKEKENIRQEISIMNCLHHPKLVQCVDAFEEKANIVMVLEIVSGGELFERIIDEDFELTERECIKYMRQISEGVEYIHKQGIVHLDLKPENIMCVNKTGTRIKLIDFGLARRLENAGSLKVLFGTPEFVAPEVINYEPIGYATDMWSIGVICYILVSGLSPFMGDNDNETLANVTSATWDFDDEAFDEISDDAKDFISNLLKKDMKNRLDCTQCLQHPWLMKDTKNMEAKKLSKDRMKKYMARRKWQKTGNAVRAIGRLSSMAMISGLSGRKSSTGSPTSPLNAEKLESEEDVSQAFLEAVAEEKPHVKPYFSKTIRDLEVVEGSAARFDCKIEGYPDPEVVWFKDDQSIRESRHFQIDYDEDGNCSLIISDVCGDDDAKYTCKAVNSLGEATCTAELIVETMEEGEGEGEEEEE", "protocol": "as §1"}, "[23]": {"target": "T13, IR (Homo sapiens, UniProt P06213)", "T13 construct": "gene INSR", "protocol": "as §1"}, "[24]": {"target": "T14, Ros (Homo sapiens, UniProt P08922)", "T14 construct": "gene ROS1", "protocol": "as §1"}, "[25]": {"target": "T15, CaMKIV (Homo sapiens, UniProt Q16566)", "T15 construct": "gene CAMK4", "protocol": "as §1"}, "[26]": {"target": "T16, ASK1 (Homo sapiens, UniProt Q99683)", "T16 construct": "gene MAP3K5", "protocol": "as §1"}, "[27]": {"target": "EGFR (Homo sapiens, UniProt P00533)", "protocol": "as §1"}, "[28]": {"target": "FGR (Homo sapiens, UniProt P09769)", "protocol": "as §1"}, "[29]": {"target": "SRPK2 (Homo sapiens, UniProt P78362)", "protocol": "as §1"}, "[30]": {"target": "T17, PAR-1Balpha (Homo sapiens, UniProt Q7KZI7)", "T17 construct": "gene MARK2", "T17 sequence (Q7KZI7 whole entry)": "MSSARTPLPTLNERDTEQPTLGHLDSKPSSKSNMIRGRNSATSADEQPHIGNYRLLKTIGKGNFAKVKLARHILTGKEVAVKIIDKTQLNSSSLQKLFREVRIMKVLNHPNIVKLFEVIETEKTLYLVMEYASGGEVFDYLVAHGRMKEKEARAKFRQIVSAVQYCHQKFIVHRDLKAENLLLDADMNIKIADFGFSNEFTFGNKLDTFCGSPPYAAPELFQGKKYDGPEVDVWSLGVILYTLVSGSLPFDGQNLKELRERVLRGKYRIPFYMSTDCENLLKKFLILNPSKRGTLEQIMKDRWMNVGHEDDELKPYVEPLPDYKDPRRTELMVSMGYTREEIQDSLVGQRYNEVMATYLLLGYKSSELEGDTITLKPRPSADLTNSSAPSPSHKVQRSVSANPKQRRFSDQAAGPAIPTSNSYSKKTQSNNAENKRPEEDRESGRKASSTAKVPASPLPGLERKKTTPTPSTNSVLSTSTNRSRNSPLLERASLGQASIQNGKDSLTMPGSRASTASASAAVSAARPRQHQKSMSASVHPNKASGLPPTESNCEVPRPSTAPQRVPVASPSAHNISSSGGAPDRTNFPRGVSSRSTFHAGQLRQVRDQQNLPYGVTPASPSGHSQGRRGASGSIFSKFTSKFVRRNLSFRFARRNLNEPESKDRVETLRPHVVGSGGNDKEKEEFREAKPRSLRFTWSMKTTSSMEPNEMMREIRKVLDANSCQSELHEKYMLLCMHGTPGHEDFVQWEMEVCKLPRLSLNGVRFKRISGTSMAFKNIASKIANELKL", "protocol": "as §1"}, "[31]": {"target": "T18, JNK2alpha2 (Homo sapiens, UniProt P45984)", "T18 construct": "gene MAPK9; isoform alpha2", "protocol": "as §1"}, "[32]": {"target": "BLK (Homo sapiens, UniProt P51451)", "protocol": "as §1"}, "[33]": {"target": "T19, JNK1alpha1 (Homo sapiens, UniProt P45983)", "T19 construct": "gene MAPK8; isoform alpha1", "protocol": "as §1"}, "[34]": {"target": "T20, PRK2 (Homo sapiens, UniProt Q16513)", "T20 construct": "gene PKN2", "protocol": "as §1"}}}
{"smiles": "OCCn1cc(-c2cnc3nnn(Cc4ccc5ncccc5c4)c3n2)cn1", "note": "[METi, PF-04217903]", "values": [{"measurement": "inhibition at 1 µM", "setting": "[1]", "result": -4, "unit": "%"}, {"measurement": "inhibition at 1 µM", "setting": "[2]", "result": 5, "unit": "%"}, {"measurement": "inhibition at 1 µM", "setting": "[3]", "result": 1, "unit": "%"}, {"measurement": "inhibition at 1 µM", "setting": "[4]", "result": -7, "unit": "%"}, {"measurement": "inhibition at 1 µM", "setting": "[5]", "result": 1, "unit": "%"}, {"measurement": "inhibition at 1 µM", "setting": "[6]", "result": 4, "unit": "%"}, {"measurement": "inhibition at 1 µM", "setting": "[7]", "result": -1, "unit": "%"}, {"measurement": "inhibition at 1 µM", "setting": "[8]", "result": 0, "unit": "%"}, {"measurement": "inhibition at 1 µM", "setting": "[9]", "result": -1, "unit": "%"}, {"measurement": "inhibition at 1 µM", "setting": "[10]", "result": -14, "unit": "%"}, {"measurement": "inhibition at 1 µM", "setting": "[11]", "result": -6, "unit": "%"}, {"measurement": "inhibition at 1 µM", "setting": "[12]", "result": -17, "unit": "%"}, {"measurement": "inhibition at 1 µM", "setting": "[13]", "result": -61, "unit": "%"}, {"measurement": "inhibition at 1 µM", "setting": "[14]", "result": 0, "unit": "%"}, {"measurement": "inhibition at 1 µM", "setting": "[15]", "result": 3, "unit": "%"}, {"measurement": "inhibition at 1 µM", "setting": "[16]", "result": -3, "unit": "%"}, {"measurement": "inhibition at 1 µM", "setting": "[17]", "result": -7, "unit": "%"}, {"measurement": "inhibition at 1 µM", "setting": "[18]", "result": -10, "unit": "%"}, {"measurement": "inhibition at 1 µM", "setting": "[19]", "result": -12, "unit": "%"}, {"measurement": "inhibition at 1 µM", "setting": "[20]", "result": -23, "unit": "%"}, {"measurement": "inhibition at 1 µM", "setting": "[21]", "result": 2, "unit": "%"}, {"measurement": "inhibition at 1 µM", "setting": "[22]", "result": -32, "unit": "%"}, {"measurement": "inhibition at 1 µM", "setting": "[23]", "result": 8, "unit": "%"}, {"measurement": "inhibition at 1 µM", "setting": "[24]", "result": 0, "unit": "%"}, {"measurement": "inhibition at 1 µM", "setting": "[25]", "result": -4, "unit": "%"}, {"measurement": "inhibition at 1 µM", "setting": "[26]", "result": -11, "unit": "%"}, {"measurement": "inhibition at 1 µM", "setting": "[27]", "result": 0, "unit": "%"}, {"measurement": "inhibition at 1 µM", "setting": "[28]", "result": 0, "unit": "%"}, {"measurement": "inhibition at 1 µM", "setting": "[29]", "result": -2, "unit": "%"}, {"measurement": "inhibition at 1 µM", "setting": "[30]", "result": 17, "unit": "%"}, {"measurement": "inhibition at 1 µM", "setting": "[31]", "result": -2, "unit": "%"}, {"measurement": "inhibition at 1 µM", "setting": "[32]", "result": 5, "unit": "%"}, {"measurement": "inhibition at 1 µM", "setting": "[33]", "result": 0, "unit": "%"}, {"measurement": "inhibition at 1 µM", "setting": "[34]", "result": -11, "unit": "%"}]}
